The record followed here is ChEMBL document CHEMBL4622850, “Discovery and optimization of new oxadiazole substituted thiazole RORγt inverse agonists through a bioisosteric amide replacement approach” (Bioorg Med Chem Lett, 2020).

SMILES strings stand for the structures. ≈ marks a conversion by molar mass, not a printed value.

Broadly, the solubility is how much of the substance goes into solution per volume. A high value points to a readily soluble substance. One may read the Kd as the free concentration of one partner at which half of the binding sites on the other are occupied at equilibrium, for simple one-to-one binding. Usually IC50 stands for the concentration that inhibits the measured activity by half. By half-life is commonly meant how long it takes for the measured level to halve. For orientation: AUC means concentration integrated over time. By bioavailability is commonly meant dose-corrected exposure relative to a reference, in per cent. Read a high bioavailability as good availability. One may read the Cmax as the highest concentration seen after dosing. Usually clearance stands for a measure of how efficiently the substance is removed, as volume per time. Broadly, the Vd is a proportionality between amount in the body and measured concentration, not a real space. Higher therefore signals wide distribution into tissue.

Series [1] can be described thus: Solubility of compound by pH 7. The note with it: buffer. Type of series: physicochemical.
A short description of series [2]: Solubility of compound by pH 2. The note with it: buffer. Type of series: physicochemical.
For series [3], the target named is T1, Nuclear receptor subfamily 1 group I member 2 (Homo sapiens, UniProt O75469).
T1 sequence (O75469 whole entry): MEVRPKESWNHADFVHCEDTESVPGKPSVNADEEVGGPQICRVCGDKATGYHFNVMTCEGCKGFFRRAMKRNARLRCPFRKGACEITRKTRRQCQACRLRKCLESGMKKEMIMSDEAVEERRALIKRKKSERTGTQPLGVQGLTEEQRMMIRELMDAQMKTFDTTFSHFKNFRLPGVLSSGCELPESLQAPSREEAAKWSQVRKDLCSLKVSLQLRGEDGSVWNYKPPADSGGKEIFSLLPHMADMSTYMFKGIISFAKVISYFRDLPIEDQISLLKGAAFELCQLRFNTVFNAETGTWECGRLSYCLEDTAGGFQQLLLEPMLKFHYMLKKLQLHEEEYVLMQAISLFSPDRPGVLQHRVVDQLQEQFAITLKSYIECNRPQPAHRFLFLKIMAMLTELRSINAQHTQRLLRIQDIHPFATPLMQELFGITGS
The series is described as follows: Activation of PXR (unknown origin) at 5 uM. The series is classed as ADME.

Series [4] addresses T2, Nuclear receptor ROR-beta (Homo sapiens, UniProt Q92753).
T2 sequence (Q92753 whole entry): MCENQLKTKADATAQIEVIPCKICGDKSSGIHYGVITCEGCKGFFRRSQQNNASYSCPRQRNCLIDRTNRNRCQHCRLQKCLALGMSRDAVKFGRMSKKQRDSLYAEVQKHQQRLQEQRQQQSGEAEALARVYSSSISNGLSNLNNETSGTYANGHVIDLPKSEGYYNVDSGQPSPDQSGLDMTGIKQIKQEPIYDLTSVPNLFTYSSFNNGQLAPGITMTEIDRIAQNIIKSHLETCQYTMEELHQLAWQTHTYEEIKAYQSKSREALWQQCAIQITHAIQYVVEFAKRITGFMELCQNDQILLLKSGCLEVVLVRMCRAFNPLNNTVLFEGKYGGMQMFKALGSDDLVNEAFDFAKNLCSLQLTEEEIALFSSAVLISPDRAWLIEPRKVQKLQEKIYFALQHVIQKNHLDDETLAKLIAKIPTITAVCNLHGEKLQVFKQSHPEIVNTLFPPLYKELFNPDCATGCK
Put plainly: Binding affinity to RORbeta (unknown origin) assessed as dissociation constant by thermal shift binding assay.

Series [5] has as its target T3, Nuclear receptor ROR-gamma (Mus musculus, UniProt P51450).
T3 sequence (P51450 whole entry): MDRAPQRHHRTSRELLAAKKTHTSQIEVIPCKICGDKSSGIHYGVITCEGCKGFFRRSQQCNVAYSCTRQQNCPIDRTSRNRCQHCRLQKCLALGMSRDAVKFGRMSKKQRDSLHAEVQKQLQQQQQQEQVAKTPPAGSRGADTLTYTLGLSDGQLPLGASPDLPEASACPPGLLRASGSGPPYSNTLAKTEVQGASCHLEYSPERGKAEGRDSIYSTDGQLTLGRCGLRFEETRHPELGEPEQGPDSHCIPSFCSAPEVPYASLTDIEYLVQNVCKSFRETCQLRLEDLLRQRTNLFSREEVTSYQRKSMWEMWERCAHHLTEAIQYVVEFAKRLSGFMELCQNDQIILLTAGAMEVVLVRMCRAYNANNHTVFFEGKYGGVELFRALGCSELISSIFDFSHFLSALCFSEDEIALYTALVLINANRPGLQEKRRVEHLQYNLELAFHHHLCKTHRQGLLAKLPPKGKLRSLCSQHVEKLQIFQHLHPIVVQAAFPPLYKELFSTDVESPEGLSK
The series is described as follows: Inverse agonist activity at RORgammat in mouse whole blood assessed as reduction in IL-17a production. Type of series: tissue-based.

Series [6] deals with Cytochrome P450 2C19 (Homo sapiens, UniProt P33261). Put plainly: Inhibition of CYP2C19 (unknown origin). The series is classed as ADME.
Cytochrome P450 2C19, sequence (P33261 whole entry): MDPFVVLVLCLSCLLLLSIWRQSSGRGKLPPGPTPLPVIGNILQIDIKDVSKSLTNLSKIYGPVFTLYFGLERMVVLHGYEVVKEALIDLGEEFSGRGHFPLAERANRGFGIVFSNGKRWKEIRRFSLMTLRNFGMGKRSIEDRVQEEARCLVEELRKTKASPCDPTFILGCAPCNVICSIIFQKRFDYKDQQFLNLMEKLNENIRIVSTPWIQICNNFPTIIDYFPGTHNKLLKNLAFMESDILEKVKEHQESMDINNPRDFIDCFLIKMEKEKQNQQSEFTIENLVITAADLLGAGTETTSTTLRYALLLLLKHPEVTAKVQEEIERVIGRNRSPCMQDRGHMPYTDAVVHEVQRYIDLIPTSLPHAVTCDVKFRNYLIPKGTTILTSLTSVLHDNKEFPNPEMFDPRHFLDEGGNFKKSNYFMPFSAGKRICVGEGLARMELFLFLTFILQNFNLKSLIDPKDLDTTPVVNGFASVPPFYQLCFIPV
Series [7] concerns the target Cytochrome P450 2C9 (Homo sapiens, UniProt P11712). The series is described as follows: Inhibition of CYP2C9 (unknown origin). The series is classed as ADME.
Series [8] is described as follows: Metabolic stability in rat liver microsomes assessed as half life. Type of series: ADME, Microsome. On the technique in general: Liver microsomes are a subcellular fraction often used to study metabolism.
Series [9] is described as follows: AUC in rat at 5 mg/kg, po. The series is classed as ADME, organism-based. The note with it: in vivo.
The nature of series [10]: Oral bioavailability in rat at 1 mg/kg. The series is classed as ADME, organism-based. The note with it: in vivo.
Series [11] can be described thus: Cmax in rat at 5 mg/kg, po. The series is classed as ADME, organism-based. Further details: dose 5 mg/kg, route oral. The note with it: in vivo.
Series [12] in a line: Clearance in rat at 1 mg/kg, iv. Type of series: ADME, organism-based. The note with it: in vivo.
A short description of series [13]: Half life in rat at 1 mg/kg, iv. The series is classed as ADME, organism-based. The note with it: in vivo.
A short description of series [14]: Volume of distribution in rat at 1 mg/kg, iv. Type of series: ADME, organism-based. The note with it: in vivo.

Cytochrome P450 2C9, sequence (P11712 whole entry): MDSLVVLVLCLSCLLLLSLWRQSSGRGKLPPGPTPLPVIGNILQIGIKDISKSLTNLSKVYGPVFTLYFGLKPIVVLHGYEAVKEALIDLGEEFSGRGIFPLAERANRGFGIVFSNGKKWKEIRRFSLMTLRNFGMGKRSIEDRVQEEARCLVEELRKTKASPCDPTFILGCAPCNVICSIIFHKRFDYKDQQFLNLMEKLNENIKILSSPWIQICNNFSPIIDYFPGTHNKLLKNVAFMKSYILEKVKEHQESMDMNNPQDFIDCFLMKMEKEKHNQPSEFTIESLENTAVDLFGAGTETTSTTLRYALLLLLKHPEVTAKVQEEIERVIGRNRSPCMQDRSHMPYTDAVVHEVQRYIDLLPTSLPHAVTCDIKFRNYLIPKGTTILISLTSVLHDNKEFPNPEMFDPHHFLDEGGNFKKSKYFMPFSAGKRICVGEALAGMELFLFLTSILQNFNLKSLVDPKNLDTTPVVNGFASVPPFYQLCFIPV

In the case of `C[C@H](NS(=O)(=O)c1ccc(-c2sc(-c3nnc([C@H]4C[C@H](C(=O)O)C4)o3)nc2CC2CCC2)c(Cl)c1Cl)C(F)(F)F`, the solubility in series [1] is 118 µM (≈ 75.5 µg/mL); in [2], less than 4 µM.

`C[C@H](NS(=O)(=O)c1ccc(-c2sc(-c3nnc(CC(C)(C)C(=O)O)o3)nc2C(=O)N2CCCC[C@@H]2C)c(C(F)F)c1F)C(F)(F)F`: the solubility was 398 µM (≈ 278 µg/mL) in series [1] and less than 4 µM in series [2].

For `CC[C@H](NS(=O)(=O)c1ccc(-c2sc(CC(C)(C)C(=O)O)nc2CC2CCC2)c(Cl)c1)C(F)(F)F`, the Activity in series [3] was 2%.

Consider `C[C@H](NS(=O)(=O)c1ccc(-c2sc(-c3noc(C(C)(C)O)n3)nc2C(=O)N2CCC(F)CC2)c(Cl)c1Cl)C(F)(F)F`, for which the solubility was 6.4 µM (≈ 4.23 µg/mL) in series [1] and 9.7 µM (≈ 6.41 µg/mL) in series [2]. The dissociation constant (Kd) in [4] is greater than 91000 nM.

Consider `C[C@H](NS(=O)(=O)c1ccc(-c2sc(-c3cc(CC(C)(C)C(=O)O)on3)nc2CC2CCC2)c(Cl)c1Cl)C(F)(F)F`, for which the solubility in series [1] and in series [2] was less than 4 µM throughout.

`CC[C@H](NS(=O)(=O)c1ccc(-c2sc(-c3nnc(CC(C)(C)C(=O)O)o3)nc2CC2CCCCC2)c(C(F)F)c1F)C(F)(F)F`: the solubility in series [1] and in [2] was less than 4 µM in each case. The IC50 in series [5] is 1540 nM.

As for `CC[C@H](NS(=O)(=O)c1ccc(-c2sc(-c3nnc(CC(C)(C)C(=O)O)o3)nc2CC2CCCC2)c(C(F)F)c1F)C(F)(F)F`, the solubility in series [1] was 69 µM (≈ 46.1 µg/mL); in [2], less than 4 µM. Besides, the 50% inhibitory concentration (IC50) in [5] was 230 nM.

Consider `CC[C@H](NS(=O)(=O)c1ccc(-c2sc(CC(C)(C)C(=O)O)nc2CC2CCC2)c(Cl)c1Cl)C(F)(F)F`, for which the solubility in series [1] is 178 µM (≈ 105 µg/mL); in series [2], less than 4 µM. Moreover, the Activity in series [3] was 40%.

In series [6], `C[C@H](NS(=O)(=O)c1ccc(-c2sc(-c3cc(CC(C)(C)C(=O)O)ncn3)nc2CC2CCC2)c(Cl)c1Cl)C(F)(F)F` came in with an IC50 of 790 nM.

Turning to `COC(C)(C)Cc1nc(-c2nnc(CC(C)(C)C(=O)O)o2)sc1-c1ccc(S(=O)(=O)N[C@@H](C)C(F)(F)F)c(F)c1C(F)F`, the solubility in series [1] is 363 µM (≈ 239 µg/mL); in series [2], less than 4 µM. For the same molecule, the IC50 in [5] is 9000 nM.

Regarding `C[C@H](NS(=O)(=O)c1ccc(-c2sc(-c3noc(CC(C)(C)C(=O)O)n3)nc2CC2CCC2)c(Cl)c1Cl)C(F)(F)F`, the solubility in series [1] was 38 µM (≈ 24.4 µg/mL); in series [2], less than 4 µM. Also, in [5], the half-maximal inhibitory concentration (IC50) was determined as 790 nM.

For `C[C@H](NS(=O)(=O)c1ccc(-c2sc(-c3nnc(CC(C)(C)C(=O)O)s3)nc2CC2CCC2)c(Cl)c1Cl)C(F)(F)F`, inhibition in series [7] was half-maximal at 900 nM (IC50).

As for `C[C@H](NS(=O)(=O)c1ccc(-c2sc(-c3nnc(CC(C)(C)C(=O)O)o3)nc2Cc2ccc(F)cc2)c(C(F)F)c1F)C(F)(F)F`, the solubility was 57 µM (≈ 38.8 µg/mL) in series [1] and less than 4 µM in series [2].

Regarding `CCN(CC)C(=O)c1nc(-c2nnc(C(C)(C)O)o2)sc1-c1ccc(S(=O)(=O)N[C@@H](C)C(F)(F)F)c(Cl)c1Cl`, the solubility in [1] was 55 µM (≈ 34.7 µg/mL). Further, in series [8], the half-life was found to be 1.58 h. In [4], the dissociation constant Kd was greater than 60000 nM. Besides, in series [5], the 50% inhibitory concentration (IC50) was found to be 100 nM.

With `C[C@H](NS(=O)(=O)c1ccc(-c2sc(CC(C)(C)C(=O)O)nc2CC2CCC2)c(Cl)c1Cl)C(F)(F)F`, the solubility in [1] is 268 µM (≈ 154 µg/mL); in series [2], less than 4 µM. The molecule further returned an Activity in series [3] of 33%. Moreover, the IC50 in series [5] is 1870 nM.

Regarding `CC[C@H](NS(=O)(=O)c1ccc(-c2sc(-c3nnc(CC(C)(C)O)o3)nc2C(=O)N2CCC(F)CC2)c(Cl)c1Cl)C(F)(F)F`, the values for the solubility in series [1] and in [2] were 99 µM (≈ 68.2 µg/mL) and 41 µM (≈ 28.2 µg/mL), respectively. Also, in series [5], the half-inhibitory concentration (IC50) worked out at 120 nM.

For `CC(C)(O)CNC(=O)c1nc(CC2CCCCC2)c(-c2ccc(S(=O)(=O)NC(C)(C)C)c3ccccc23)s1`, the solubility in [1] and in series [2] was less than 4 µM in each case.

As for `C[C@H](NS(=O)(=O)c1ccc(-c2sc(-c3cnc(CC(C)(C)C(=O)O)s3)nc2CC2CCC2)c(Cl)c1Cl)C(F)(F)F`, the solubility in [1] and in [2] was less than 4 µM each time.

On to `CC(C)(C)NS(=O)(=O)c1ccc(-c2sc(C(=O)N[C@H]3C[C@H](C(=O)O)C3)nc2CC2CCCCC2)c2ccccc12`, for which the solubility in series [1] and in series [2] was less than 1 µM each time. This molecule returned an AUC in series [9] of 302 ng·h/mL. For the same molecule, the bioavailability in [10] was determined as 20%. Besides, the highest level in [11] (Cmax) was 220 nM.

Regarding `C[C@H](NS(=O)(=O)c1ccc(-c2sc(CC(C)(C)C(=O)O)nc2CC2CCC2)c(C(F)(F)F)c1)C(F)(F)F`, in series [3], the Activity is listed as 43%.

Regarding `C[C@H](NS(=O)(=O)c1ccc(-c2sc(-c3nnc(C(C)(C)O)o3)nc2C(=O)N2CCC(F)CC2)c(Cl)c1Cl)C(F)(F)F`, the solubility in series [1] was 165 µM (≈ 109 µg/mL). In series [4], the Kd is greater than 50000 nM.

For `C[C@H](NS(=O)(=O)c1ccc(-c2sc(-c3nnc(CC(C)(C)C(=O)O)o3)nc2CC2CCC2)c2ccccc12)C(F)(F)F`, the solubility is 24 µM (≈ 14.9 µg/mL) in series [1] and less than 4 µM in [2]. This molecule also yielded an exposure (AUC) in series [9] of 13100 ng·h/mL. Also, the half-life in series [8] is greater than 3 h; in series [13], 3.1 h. Also, the clearance in series [12] amounted to 6 mL/min/kg. This molecule also yielded a bioavailability in series [10] of 96%. In addition, the peak concentration (Cmax) in series [11] was determined as 2300 nM. Besides, in series [14], the Vd turned out to be 1.1 L/kg.

As to `CC(C)(C)NS(=O)(=O)c1ccc(-c2sc(-c3nnc(C(C)(C)O)o3)nc2CC2CCCCC2)c2ccccc12`, the solubility in series [1] and in series [2] was less than 1 µM each time.

With `C[C@H](NS(=O)(=O)c1ccc(-c2sc(-c3nnc(CC(C)(C)C(=O)O)o3)nc2CN2CCCC(F)(F)C2)c(C(F)F)c1F)C(F)(F)F`, the solubility in series [1] was found to be 182 µM (≈ 128 µg/mL); in series [2], 54 µM (≈ 38.1 µg/mL). In series [5], the IC50 turned out to be 448 nM.

As for `C[C@H](NS(=O)(=O)c1ccc(-c2sc(C(=O)NCC(C)(C)O)nc2CC2CCC2)c(Cl)c1Cl)C(F)(F)F`, the half-life in [8] was determined as 0.617 h.
